Data taken from the NIST ThermoML archive (doi:10.1021/acs.jced.6b00470).
± gives the expanded uncertainty stated by the source.

Legend:
[1] = refractive index (other wavelength) (dimensionless); conditions: 100 kPa, Liquid, Standard Abbe refractometry
[2] = Liquid; for mass density / viscosity: 101.33 kPa; for mass density: Vibrating tube method; for viscosity: Vibrating wire viscometry; for vapor or sublimation pressure: Ebulliometric method (Recirculating still)

COC(=O)c1ccc(C(C)(C)C)cc1 [methyl 4-tert-butylbenzoate]
refractive index, [1]
Conditions | Wavelength=404.7 nm | Wavelength=435.8 nm | Wavelength=486.1 nm | Wavelength=546.1 nm | Wavelength=587.6 nm | Wavelength=589.3 nm | Wavelength=632.8 nm | Wavelength=644 nm | Wavelength=706.5 nm
338.15 K | – | – | – | – | – | 1.49096 ± 0.0005 | 1.48801 ± 0.0005 | 1.48735 ± 0.0005 | 1.48419 ± 0.00049
343.15 K | 1.51699 ± 0.00056 | 1.50881 ± 0.00053 | 1.49967 ± 0.00051 | 1.49246 ± 0.0005 | 1.48895 ± 0.0005 | 1.48883 ± 0.0005 | 1.48591 ± 0.0005 | 1.48523 ± 0.0005 | 1.48208 ± 0.00049
348.15 K | 1.5147 ± 0.00056 | 1.50655 ± 0.00053 | 1.49745 ± 0.00051 | 1.49026 ± 0.0005 | 1.48678 ± 0.0005 | 1.48667 ± 0.0005 | 1.48376 ± 0.0005 | 1.48309 ± 0.0005 | 1.47995 ± 0.00049
353.15 K | 1.51239 ± 0.00056 | 1.50427 ± 0.00053 | 1.49523 ± 0.00051 | 1.48807 ± 0.0005 | 1.48461 ± 0.0005 | 1.48449 ± 0.0005 | 1.48162 ± 0.0005 | 1.48094 ± 0.0005 | 1.47781 ± 0.00049

[2]
Conditions | mass density [kg/m3] | vapor or sublimation pressure [kPa] | viscosity [mPa·s]
293.15 K | 1008.55 ± 1.5 | – | 6.867 ± 0.36
298.15 K | 1004.06 ± 1.5 | – | 5.867 ± 0.35
303.15 K | 999.54 ± 1.5 | – | 5.013 ± 0.34
308.15 K | 994.01 ± 1.5 | – | 4.291 ± 0.33
313.15 K | 989.09 ± 1.5 | – | 3.687 ± 0.32
318.15 K | 983.89 ± 1.5 | – | 3.188 ± 0.31
323.15 K | 979.29 ± 1.5 | – | 2.781 ± 0.31
328.15 K | 974.01 ± 1.5 | – | 2.451 ± 0.31
333.15 K | 969.29 ± 1.5 | – | 2.185 ± 0.3
338.15 K | 964.47 ± 1.5 | – | 1.969 ± 0.3
343.15 K | 959.5 ± 1.5 | – | 1.79 ± 0.3
348.15 K | 954.38 ± 1.5 | – | 1.634 ± 0.3
353.15 K | 948.71 ± 1.5 | – | 1.487 ± 0.3
398.3 K | – | 1.21 ± 0.41 | –
408.4 K | – | 1.89 ± 0.41 | –
411.3 K | – | 2.13 ± 0.41 | –
421.3 K | – | 3.19 ± 0.42 | –
430.4 K | – | 4.51 ± 0.43 | –
434.9 K | – | 5.32 ± 0.45 | –
440.6 K | – | 6.53 ± 0.46 | –
446.1 K | – | 7.93 ± 0.48 | –
448.2 K | – | 8.53 ± 0.51 | –
452.4 K | – | 9.87 ± 0.52 | –
454.3 K | – | 10.53 ± 0.54 | –
457.2 K | – | 11.6 ± 0.56 | –
459.7 K | – | 12.61 ± 0.58 | –
462.6 K | – | 13.87 ± 0.6 | –
464.3 K | – | 14.67 ± 0.63 | –
466.3 K | – | 15.67 ± 0.66 | –
467.2 K | – | 16.13 ± 0.66 | –
470.7 K | – | 18 ± 0.69 | –
473.6 K | – | 19.73 ± 0.73 | –
475.1 K | – | 20.67 ± 0.77 | –
477.9 K | – | 22.53 ± 0.8 | –
480.1 K | – | 24.13 ± 0.84 | –
482.4 K | – | 25.87 ± 0.88 | –
483.3 K | – | 26.53 ± 0.87 | –
484.9 K | – | 27.88 ± 0.93 | –
486.4 K | – | 29.13 ± 0.93 | –
487.9 K | – | 30.4 ± 0.97 | –
489.5 K | – | 31.86 ± 1 | –
490.6 K | – | 32.93 ± 1 | –
492.4 K | – | 34.66 ± 1 | –
